# According to paper PMC11477000, “Enantioselective Binding of Proton Pump Inhibitors to Alpha1-Acid Glycoprotein and Human Serum Albumin—A Chromatographic, Spectroscopic, and In Silico Study” (International Journal of Molecular Sciences, 2024):
# Assays:
# Assay type in all cases: binding
# [1] = biological target: T1, human serum albumin (HSA) (Homo sapiens, UniProt P02768); experiment: van 't Hoff thermodynamic analysis on HSA column; details: for Δ(ΔG°) / Δ(ΔH°) / Δ(ΔS°): pH 7, 95:5 buffer:IPA, 10–30 °C
# T1 sequence (P02768 25-609): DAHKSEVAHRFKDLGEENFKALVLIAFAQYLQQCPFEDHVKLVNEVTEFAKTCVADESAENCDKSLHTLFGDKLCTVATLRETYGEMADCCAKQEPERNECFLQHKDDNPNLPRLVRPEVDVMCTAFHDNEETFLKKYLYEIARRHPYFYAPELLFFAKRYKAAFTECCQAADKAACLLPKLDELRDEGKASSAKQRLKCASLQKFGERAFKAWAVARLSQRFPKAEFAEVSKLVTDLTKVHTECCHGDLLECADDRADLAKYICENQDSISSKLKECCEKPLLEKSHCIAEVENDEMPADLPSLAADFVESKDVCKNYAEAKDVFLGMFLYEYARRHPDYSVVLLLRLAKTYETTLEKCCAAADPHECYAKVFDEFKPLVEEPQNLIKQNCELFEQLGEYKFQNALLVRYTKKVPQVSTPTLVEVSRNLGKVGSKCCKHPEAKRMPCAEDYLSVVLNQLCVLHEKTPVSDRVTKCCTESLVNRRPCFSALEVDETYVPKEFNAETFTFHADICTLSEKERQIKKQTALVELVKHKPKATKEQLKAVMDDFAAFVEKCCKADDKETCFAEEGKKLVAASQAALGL
# Method: The temperature effect was investigated at pH 7 and a 95:5 buffer:IPA eluents ratio, between 10 and 30 °C on both columns. […] The determination of thermodynamic parameters can provide valuable insights into the process of enantiodiscrimination, including its mechanistic aspects. The applied classical van ’t Hoff methodology postulates the existence of solely enantioselective interaction sites on the stationary phase. Nonetheless, it should be emphasized that a more realistic approach would encompass both enantioselective and non-enantioselective interactions. The isoenantioselective temperatures (Tiso) were calculated by dividing Δ(ΔH°) by Δ(ΔS°). At this temperature, enthalpy and entropy compensations negate each other, resulting in the coelution of the two enantiomers and no separation. The Q values (Q = Δ(ΔH°)/T × Δ(ΔS°)298K) were used for visualizing the relative contribution of enthalpic and entropic terms to the free energy of adsorption. If the Q values were smaller than 1, the enantioseparation was controlled by entropy to a higher extent.
# Classical van ’t Hoff analysis was applied to determine the thermodynamic parameters. Van ’t Hoff plots were constructed by plotting the natural logarithm of the retention factor as a function of the inverse of the absolute temperature (thermodynamic temperature) over a temperature range of 10–30 °C:(5) […]
# In the equation, R represents the universal gas constant, T represents the absolute temperature in Kelvin, and k represents the retention factor of the enantiomers. ΔH° stands for the standard enthalpy, while ΔS° represents the standard entropy change of transfer of the solute from the mobile phase to the stationary phase. Φ is the phase ratio of the column. If ΔH° remains constant within the selected temperature range, a linear relationship can be observed between lnk and 1/T. The slope of this relationship is −ΔH°/R, and the intercept is ΔS°/R + ln Φ. Since the value of the phase ratio is rarely known, ΔS°* values (ΔS°* = ΔS° + Rln Φ) are often used to account for the uncertainty in Φ. Similarly, the difference in the change of standard enthalpy, Δ(ΔH°), and standard entropy, Δ(ΔS°), for the two enantiomers was calculated as follows:(6) lnα=−ΔΔH°/RT+ΔΔS°/R
# HSA = biological target: T2, HSA (Homo sapiens, UniProt P02768); experiment: UV titration (Benesi–Hildebrand) with HSA; details: n = 3, 1 μM HSA, pH 7.4 phosphate buffer, 24 °C, 278 nm, read-out: logKHSA ± Stdev. (logarithm of stability constant) (converted)
# T2 construct: purchased Sigma-Aldrich
# T2 sequence (P02768 25-609): as above
# Method: The UV-Vis absorption assay is a straightforward and relatively simple method to examine the interactions between small molecules and macromolecules. Changes in the structure of the protein caused by the interacting ligand can lead to alterations in the absorption spectrum. […] Fixed wavelength measurements were conducted at the absorption maxima of AGP and HSA. […] The change in the absorbance and wavelength maximum in the UV spectra during the titration refers to the complex formation between proteins and PPIs. The Benesi–Hildebrand method was used to determine the stability constants based on Equation (7).
# The absorption spectra were recorded on a Jasco V-750 spectrophotometer (Jasco, Tokyo, Japan) at 24 °C using 1.0 cm path-length quartz cuvettes. Then, 1 μM HSA and AGP were dissolved in a sodium phosphate buffer solution (pH 7.4; 0.1 M) and their concentration was kept constant. The PPIs were dissolved in DMSO, and further diluted with the AGP or HSA solution. Next, 1000 μL of 1 μM HSA and AGP solutions was titrated with the PPI stock solution in 1 μL steps. The concentration of the PPIs was set to 4.00, 7.98, 11.96, 15.94, 19.90, 23.86, 27.81, and 31.75 μM. The binding constants were determined using the Benesi–Hildebrand equation:(7) A0/A−A0=εPPI/εAPPI−εPPI+εPPI/εAPPI−εPPI×1/K×[C] where A0 is the absorbance of the HSA or AGP at 278 nm, A is the absorbance of the formed complex also at 278 nm, εPPI is the extinction coefficient of the actual PPI, εAPPI is the extinction coefficient of the albumin or AGP and PPI complex, K is the binding coefficient, and [C] is the concentration of the investigated PPI. The plot of A0/A − A0 versus C^−1 has a slope of K^−1. All experiments were performed in triplicate.
# [2] = biological target: T1, human serum albumin (HSA); experiment: Displacement chromatography on HSA column with warfarin and ibuprofen as competitors; details: IPA:10 mM pH 7 phosphate buffer 1:99, 25 °C
# Method: For identification of the binding site of HSA, a displacement chromatography and fluorescence displacement study were performed. In the case of chromatography, to the mobile phase, increasing concentrations of the competitors, warfarin and ibuprofen, that are known to bind to specific binding sites on HSA, Sudlow site I and Sudlow site II, respectively, were added. In the case of the fluorescence displacement study, the fluorescence quenching data of the PPI-HSA system in the presence of warfarin and ibuprofen were investigated.
# (Chromatographic parameter: Column temperature: 25 °C,
# mobile phase: IPA : 10 mM pH 7 sodium phosphate buffer 1:99, flow rate: 0.7 mL/min, detection
# [3] = difference between the two enantiomers
Q ([1]; Q = Δ(ΔH°)/T × Δ(ΔS°)298K),"Δ(ΔG°) [1, 3]","Δ(ΔH°) [1, 3]","Δ(ΔS°) [1, 3]",Tiso isoenantioselective temperature ([1]; Δ(ΔH°)/Δ(ΔS°)),Structure (SMILES),Δ(ΔG°) ([1]; single enantiomer),Δ(ΔH°) ([1]; single enantiomer),Δ(ΔS°) ([1]; single enantiomer),Kd (HSA),k retention factor ([2]; ibuprofen 0 mM),k retention factor ([2]; ibuprofen 0.01 mM),k retention factor ([2]; ibuprofen 0.05 mM),k retention factor ([2]; ibuprofen 0.1 mM),k retention factor ([2]; warfarin 0 mM),k retention factor ([2]; warfarin 0.01 mM),k retention factor ([2]; warfarin 0.05 mM),k retention factor ([2]; warfarin 0.1 mM)
,,,,,Cc1c(OCC(F)(F)F)ccnc1C[S@+]([O-])c1nc2ccccc2[nH]1 [S-lansoprazole],-1.58 kcal/mol,-2.68 kcal/mol,−15.9 J/molK,21.9 µM,11.17,9.81,8.51,7.60,11.17,9.03,8.13,7.44
,,,,,"COCCCOc1ccnc(C[S+]([O-])c2nc3ccccc3[nH]2)c1C (stereo not drawn) [Rabeprazole, rabeprazole]",,,,,7.21,6.67,5.87,5.05,7.21,5.81,4.98,4.73
1.4,-0.17 kcal/mol,-0.669 kcal/mol,−7.2 J/molK,128.9 °C,"Cc1c(OCC(F)(F)F)ccnc1C[S+]([O-])c1nc2ccccc2[nH]1 (stereo not drawn) [Lansoprazole, lansoprazole]",,,,,,,,,,,,
,,,,,"COc1ccc2[nH]c([S+]([O-])Cc3ncc(C)c(OC)c3C)nc2c1 (stereo not drawn) [Omeprazole, omeprazole]",,,,,9.53,7.96,6.31,5.22,9.53,8.57,7.71,6.98
,,,,,"Cc1c(OCC(F)(F)F)ccnc1C[S@@+]([O-])c1nc2ccccc2[nH]1 [R-lansoprazole, dexlansoprazole]",-1.39 kcal/mol,-2.01 kcal/mol,−8.7 J/molK,60.3 µM,18.27,13.98,10.41,7.60,18.27,14.84,12.07,10.51
